Results: patent publication US9174993B2, “N-[4-(1H-pyrazolo[3,4-b]pyrazin-6-yl)-phenyl]-sulfonamides and their use as pharmaceuticals” (SANOFI, priority 2011, dated 2015)

Tests used:
[1] = tested on: SGK-1 dependent activation of ENaC-currents in A6 cell monolayers; assay: Functional electrophysiological assay, SGK-1 dependent activation of ENaC currents in A6 cell monolayers (Ussing chamber); format: cell-based; conditions: Xenopus laevis, 0.75 h, hypoosmotic shock 45 min, read-out: IC50 for inhibition of ΔI'sc (amiloride-sensitive ENaC-dependent short circuit current)
Procedure: Materials and methods for Ussing chamber measurement of A6 cells: The renal Xenopus laevis cell line A6 (Rafferty, K. A.; Mass culture of amphibia cells: methods and observations concerning stability of cell type. In: Biology of Amphibian Tumors, edited by M. Mizell. New York: Springer-Verlag, 1969, p. 52-81) was used for the experiments. Cells were grown in cell culture flasks (Nunc) at 28° C. in a humidified atmosphere with 4% CO2. The culture medium contained a 7:3 mixture of Leibovitz's L-15 (Sigma-Aldrich)/Coon's (Sigma-Aldrich) media supplemented with 10% fetal bovine serum (PAA), 20% sterile water, 25 mM NaHCO3 (Sigma-Aldrich), 100 U/ml penicillin (PAA) and 100 μg/ml streptomycin (PAA). The osmolality of the medium was 270 mOsml/kg H2O). […] Filters with confluent A6 cells were transferred into a continuously perfused Ussing-chamber, and electrophysiological parameters were measured under open circuit conditions using a transepithelial clamp amplifier (EP Design). Short circuit current (I′sc) was calculated by Ohm's law. […]
To evaluate the effects of SGK inhibitors on ENaC-mediated transepithelial currents, […] monolayers were first equilibrated for 5 min with isoosmotic Ringer-solution from both the luminal and basolateral side of the cell layer. […] ENaC-dependent I′sc after the hypoosmotic shock (I′schypo) was determined by application of amiloride at the end of the experiment. […]

[2] = tested on: collagen type X (Col10a1) expression in ATDC5 cells; assay: Chondrocyte hypertrophic differentiation in mouse chondrogenic ATDC5 cells (collagen type X expression); format: cell-based; conditions: 336 h, 14 days differentiation with BMP2 and T3, Col10a1 by quantitative real-time PCR, read-out: IC50 for the inhibition of collagen type X expression
Text: The ATDC5 cell assay was used as in vitro model to determine the effects of the compounds of the invention on chondrocyte hypertrophic differentiation by monitoring the expression levels of collagen type X (Col10a1) as specific marker of chondrocyte hypertrophy.
Background: ATDC5 cells are a clonal mouse embryonic cell line derived from multipotent AT805 teratocarcinoma cells (Atsumi T, Miwa Y, Kimata K, Ikawa Y.; A chondrogenic cell line derived from a differentiating culture of AT805 teratocarcinoma cells. Cell Differ. Dev. 30 (1990), 109-116). […] Chondrogenic differentiation can be shown by measuring the expression of the cartilage main collagen (Col2a1) and aggrecan (AGC1) and glycosaminoglycan-staining with Alcian Blue within two weeks after insulin-triggered differentiation, and hypertrophic differentiation can be monitored by the expression of collagen type X (Col10a1), a specific marker of chondrocyte hypertrophy within 21 days of in vitro culture. […] SGK-inhibitors were added to differentiating ATDC5 cells for 14 days and Col10a1 gene expression was quantified to determine effects on chondrocyte hypertrophic differentiation. […]
After two weeks of cell culture, RNA was isolated and converted to cDNA for determination of gene expression by quantitative real-time PCR. […] RNA was isolated in 30 μl of pure water and the RNA content measured by UV-spectroscopy (Nanodrop, Peqlab). […]

[3] = molecular target: recombinant human SGK-1 enzyme (Homo sapiens, UniProt O00141); assay: SGK-1 enzymatic activity assay (substrate phosphorylation, fluorescein-labeled peptide, lab-chip); format: biochemical; conditions: ATP 10 μM, peptide substrate 1 μM, 60 min at 37° C., read-out: IC50 for inhibition of SGK-1 enzymatic activity
Chain of recombinant human SGK-1 enzyme (O00141 whole entry, looked up): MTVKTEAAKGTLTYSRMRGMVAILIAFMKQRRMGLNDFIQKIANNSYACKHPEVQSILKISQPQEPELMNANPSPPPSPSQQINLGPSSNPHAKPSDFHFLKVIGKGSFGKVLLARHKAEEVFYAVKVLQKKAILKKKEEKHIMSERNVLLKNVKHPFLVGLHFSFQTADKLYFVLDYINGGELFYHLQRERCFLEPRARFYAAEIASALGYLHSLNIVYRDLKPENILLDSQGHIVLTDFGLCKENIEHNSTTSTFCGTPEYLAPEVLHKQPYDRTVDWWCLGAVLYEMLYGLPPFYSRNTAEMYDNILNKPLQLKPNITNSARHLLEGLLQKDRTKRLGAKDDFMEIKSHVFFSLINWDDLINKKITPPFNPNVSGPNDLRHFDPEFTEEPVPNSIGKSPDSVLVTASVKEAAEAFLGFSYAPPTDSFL
Text: The synthesized fluorescent labeled peptide substrate contained (5(6)-Carboxyfluorescein)-RPRAATF-NH2. The phosphorylated substrate peptide and non-phosphorylated substrate peptide were separated with caliper life science's lab-chip technology based on a micro fluidics method. All fluid flow was established on the chip by applying a vacuum of a few psi to the waste well transporting fluid from various sources through interconnecting channels. Because the phosphoryl group is doubly negatively charged, under the pressure-driven hydrodynamic flow and the voltage-driven flow within the electric field, the fluorescent labeled peptide substrate and its phosphorylation product appear at different times in the detection window to the detection point. Substrate turnover can thus be determined as the ratio of the product peak area and the sum of substrate peak area and product peak area.
The enzyme reaction was carried out in a buffer containing 25 mM Tris-HCl (pH 7.4), 5 mM MgCl2, 2 mM MnCl2, 2 mM DTT, and 0.03% bovine serum albumine. The enzyme was pre-incubated with the test compound for 30 min at 24° C. The kinase reaction was initiated by addition of the substrate mixture containing the peptide substrate (final concentration 1 μM) and ATP (final concentration 10 μM). After 60 min incubation at 37° C., the enzyme reaction was terminated by adding a buffer containing 100 mM Hepes (pH 7.4) and 35 mM EDTA.
For the determination of the compound dose response, a 10 mM DMSO stock solution was diluted and tested in a ten-point, three-fold dilution series run in duplicate beginning at 30 μM final concentration. Data were analyzed using a four-parameter curve fit with a fixed minimum and maximum experimentally defined as the average positive and negative controls on each plate.

Compound | IC50 [3] | other results
Nc1n[nH]c2nc(-c3ccc(NS(=O)(=O)c4cccc(Cl)c4Cl)cc3)cnc12 [Example 1, N-[4-(3-Amino-1H-pyrazolo[3,4-b]pyrazin-6-yl)phenyl]-2,3-dichloro-benzenesulfonamide] |  | IC50 [1]: 2.1 µM
Nc1n[nH]c2nc(-c3ccc(NS(=O)(=O)c4cc(Cl)ccc4F)c(F)c3)cnc12 [Example 6, N-[4-(3-Amino-1H-pyrazolo[3,4-b]pyrazin-6-yl)-2-fluoro-phenyl]-5-chloro-2-fluoro-benzenesulfonamide] |  | IC50 [2]: 0.559 µM
O=S(=O)(Nc1ccc(-c2cnc3c(NS(=O)(=O)c4cc(Cl)c(F)cc4F)n[nH]c3n2)cc1)c1cc(Cl)c(F)cc1F [Example 42, 5-Chloro-N-[4-[3-[(5-chloro-2,4-difluoro-phenyl)sulfonylamino]-1H-pyrazolo[3,4-b]pyrazin-6-yl]phenyl]-2,4-difluoro-benzenesulfonamide] | 0.413 µM | 
Cc1nn(C)c(Cl)c1S(=O)(=O)Nc1ccc(-c2cnc3c(NS(=O)(=O)c4c(C)nn(C)c4Cl)n[nH]c3n2)cc1 [Example 43, 5-Chloro-N-[4-[3-[(5-chloro-1,3-dimethyl-pyrazol-4-yl)sulfonylamino]-1H-pyrazolo[3,4-b]pyrazin-6-yl]phenyl]-1,3-dimethyl-pyrazole-4-sulfonamide] | 1.05 µM | 

The next lines start with results.

IC50 [3] | Compound | other results
0.047 µM | N#Cc1ccc(F)c(S(=O)(=O)Nc2ccc(-c3cnc4c(N)n[nH]c4n3)cc2)c1 [Example 45, N-[4-(3-Amino-1H-pyrazolo[3,4-b]pyrazin-6-yl)-phenyl]-5-cyano-2-fluoro-benzenesulfonamide] | 
0.031 µM | Nc1n[nH]c2nc(-c3ccc(NS(=O)(=O)c4cc(F)cc(F)c4Cl)cc3)cnc12 [Example 60, N-[4-(3-Amino-1H-pyrazolo[3,4-b]pyrazin-6-yl)-phenyl]-2-chloro-3,5-difluoro-benzenesulfonamide] | 
0.018 µM | Nc1n[nH]c2nc(-c3ccc(NS(=O)(=O)c4ccc(F)cc4Cl)cc3)cnc12 [Example 61, N-[4-(3-Amino-1H-pyrazolo[3,4-b]pyrazin-6-yl)-phenyl]-2-chloro-4-fluoro-benzenesulfonamide] | 
